Series [1] in a line: Pharmacokinetic test in mice. Type of series: in vivo, ICR mice. The settings on record: plasma, i.g. 10 mg/kg. How it is done: Experimental animals: Male ICR mice, 25-30 g, were purchased from Chengdu Ddossy Experimental Animals Co., Ltd.
Experimental design: On the day of the experiment, the ICR mice were randomly grouped according to their body weights. The animals were fasted with water available for 12 to 14 h one day before the administration, and were fed 4 h after the administration.
Before and after the administration, blood was taken from the orbit of the animals at specified time points and placed in an EDTAK2 centrifuge tube. The blood was centrifuged at 5000 rpm and 4° C. for 10 min to collect plasma. The blood collection time points for the intravenous group and intragastric administration group were: 0, 5 min, 15 min, 30 min, 1 h, 2 h, 4 h, 7 h, and 24 h. Before analysis and detection, all samples were stored below −60° C. The samples were analyzed quantitatively by LC-MS/MS.

In another series the target is USP1/UAF1 (Homo sapiens (Human), UniProt O94782). The series is described as follows: Inhibitory activity on USP1/UAF1 enzymology (ubiquitin rhodamine 110 substrate). Conditions: 0.5 nM USP1/UAF1, 500 nM ubiquitin rhodamine 110. Type of series: biochemical. How it is done:
Ubiquitin rhodamine 110 was used as a substrate to detect the activity of the deubiquitinating enzyme USP1/UAF1 after drug treatment. The total test system was 20 μl, and the test buffer comprises 50 mM Tris-HCl (pH 7.8), 0.5 mM EDTA, 0.01% Bovine Serum Albumin, 1 mM DTT, and 0.01% Tween-20. At the beginning of the experiment, 0.5 nM USP1/UAF1 (Bio-Techne, E-568-050) protein was added to a 384-well plate (PerkinElmer, 6008269), and the test compound diluted in a gradient was then added. After incubation at room temperature for 10 min, 500 nM ubiquitin rhodamine 110 (Bio-Techne, U-555-050) was added, and the mixture was incubated at room temperature for 20 min. Enspire™ Multilabel Reader microplate reader (PerkinElmer) was used for detection at excitation light of 485 nm/emission light of 535 nm. The IC50 value was calculated using GraphPad Prism software.

For a further series, the system named is MDA-MB-436 cells. Nature of the series: Clone formation test of MDA-MB-436 cells. Type of series: cell-based. Conditions: 14 days, crystal violet, OD 570 nm, read-out: IC50 (nM), inhibitory activity on MDA-MB-436 cell clones. Here is the method: In this experiment, MDA-MB-436 cells were treated by adding a test compound to detect the ability of cell clone formation. At the beginning of the experiment, MDA-MB-436 cells (ATCC, HTB-130) were added to a 96-well plate (Corning, 3599), with 500 cells per well, and they were subjected to adherent culture overnight. The next day, the compound diluted in a gradient was added, and culture was continued in a […] incubator at 37° C. On the 7th day, the old culture medium was discarded, and the test compound diluted in a gradient was added again. At the 14th day, the 96-well plate was taken out, the culture liquid was discarded, and cell clones were detected by Crystal violet Assay kit. PHERAstar FSX microplate reader (BMG LABTECH) was used for detection of OD at 570 nm. The IC50 value was calculated using GraphPad Prism software.

Series [2] can be described thus: Pharmacokinetic test in beagle dogs. Type of series: in vivo. Conditions: i.g. 5 mg/kg. How it is done: Experimental objective: a single dose of test compounds was administered to beagle dogs intravenously and intragastrically, and the concentrations of the test compounds in plasma of the beagle dogs were measured to evaluate pharmacokinetic characteristics of the test compounds in the beagle dogs.
Experimental animals: male beagle dogs, about 8-11 kg, were purchased from Beijing Marshall Biotechnology Co., Ltd.
Experimental method: On the day of the experiment, the beagle dogs were randomly grouped according to their body weights. The animals were fasted but with water available for 14 to 18 hours one day before administration, and were fed 4 hours after administration. The administration was performed based on the information in the following table.
Vehicle for intravenous administration: 5% DMA+5% Solutol+90% Saline; Vehicle for intragastric administration: 0.5% MC
(DMA: dimethylacetamide; Solutol: polyethylene glycol-60-hydroxystearate; Saline: physiological saline; MC: Methylcellulose solution)
Sampling: Before and after the administration, blood was taken from the jugular veins or limb veins, and placed in an EDTAK2 centrifuge tube. Centrifugation was performed at 5000 rpm at 4° C. for 10 min, and plasma was collected.
Time points for blood collection: 0, 5 min, 15 min, 30 min, 1 h, 2 h, 4 h, 6 h, 8 h, 10 h, 12 h, 24 h, 48 h, and 72 h. Before analysis and detection, all the samples were stored at −60° C. or lower. The samples were analyzed quantitatively by LC-MS/MS.

Where [3] appears, read: Homo sapiens, MDA-MB-436, 336 h.

Read-outs that look alike come from different tables or passages of the source. Where only a bound is given, the exact number is not on record here.

Chain of USP1/UAF1 (O94782 whole entry): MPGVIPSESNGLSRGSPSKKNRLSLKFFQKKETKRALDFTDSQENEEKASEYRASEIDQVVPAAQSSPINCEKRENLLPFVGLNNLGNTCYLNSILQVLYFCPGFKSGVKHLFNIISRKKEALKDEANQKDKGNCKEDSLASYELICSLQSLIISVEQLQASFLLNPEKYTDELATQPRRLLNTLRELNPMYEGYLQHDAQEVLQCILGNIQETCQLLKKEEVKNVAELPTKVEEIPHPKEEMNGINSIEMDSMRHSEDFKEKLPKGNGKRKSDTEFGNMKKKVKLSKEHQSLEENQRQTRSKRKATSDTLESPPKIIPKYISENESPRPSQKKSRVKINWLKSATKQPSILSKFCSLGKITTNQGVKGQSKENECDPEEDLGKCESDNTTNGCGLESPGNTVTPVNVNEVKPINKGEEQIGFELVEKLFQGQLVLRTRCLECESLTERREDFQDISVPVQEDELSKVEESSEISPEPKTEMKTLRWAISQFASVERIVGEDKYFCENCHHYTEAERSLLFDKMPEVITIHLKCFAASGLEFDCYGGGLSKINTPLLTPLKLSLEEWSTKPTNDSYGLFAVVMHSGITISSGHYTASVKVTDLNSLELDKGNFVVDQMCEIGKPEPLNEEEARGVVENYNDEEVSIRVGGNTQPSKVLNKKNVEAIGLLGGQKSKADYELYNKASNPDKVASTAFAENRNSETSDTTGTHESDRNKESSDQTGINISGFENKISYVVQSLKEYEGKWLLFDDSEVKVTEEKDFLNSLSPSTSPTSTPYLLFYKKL
Chain of USP1/UAF1 (Q8TAF3 whole entry partner): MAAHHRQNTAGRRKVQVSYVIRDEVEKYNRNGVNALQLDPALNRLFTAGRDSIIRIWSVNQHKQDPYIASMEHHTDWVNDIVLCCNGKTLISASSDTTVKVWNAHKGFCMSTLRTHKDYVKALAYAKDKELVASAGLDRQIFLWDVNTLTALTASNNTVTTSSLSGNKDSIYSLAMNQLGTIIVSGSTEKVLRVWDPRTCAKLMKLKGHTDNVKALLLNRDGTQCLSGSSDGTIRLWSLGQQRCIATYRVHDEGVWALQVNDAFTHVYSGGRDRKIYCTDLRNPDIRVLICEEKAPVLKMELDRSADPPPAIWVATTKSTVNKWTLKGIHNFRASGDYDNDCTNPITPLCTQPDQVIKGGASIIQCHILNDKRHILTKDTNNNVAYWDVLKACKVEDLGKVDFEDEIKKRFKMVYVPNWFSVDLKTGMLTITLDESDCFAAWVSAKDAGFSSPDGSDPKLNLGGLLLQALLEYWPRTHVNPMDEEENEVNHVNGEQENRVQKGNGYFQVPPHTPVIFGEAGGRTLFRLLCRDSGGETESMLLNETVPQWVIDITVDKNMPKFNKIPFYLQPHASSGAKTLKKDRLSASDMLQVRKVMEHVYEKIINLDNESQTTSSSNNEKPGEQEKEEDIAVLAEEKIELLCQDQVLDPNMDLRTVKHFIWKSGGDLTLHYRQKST

For `COc1ncnc(C2CC2)c1-c1ncc2cnn(Cc3ccc(-c4nc(C(F)(F)F)c5n4CC4(CC4)C5)cc3)c2c1F` [Compound 21], the Oral absorption result in series [1] is “Yes”. `COc1ncnc(C2CC2)c1-c1ncc2cnn(Cc3ccc(-c4nc(C(F)(F)F)cn4C(C)C)cc3)c2c1F` [Compound 1]: in series [1], the Oral absorption result was “Yes”. The IC50 was below 20 nM against USP1/UAF1 and below 200 nM in the series with MDA-MB-436 cells. Take `Fc1c(-c2c(OC(F)F)ncnc2C2CC2)ncc2cnn(Cc3ccc(-c4nc(C(F)(F)F)c5n4CC4(CC4)C5)cc3)c12` [Compound 12]: the Oral absorption result in series [1] is “Yes”. With `COc1ncnc(C2CC2)c1-c1ncc2cnn(CC34CCC(c5nc(C(F)(F)F)cn5C(C)C)(CC3)CC4)c2c1F` [Compound 2], in series [1], the Oral absorption entry is on record as “Yes”. Also, the results for the IC50 at USP1/UAF1 and in the series on MDA-MB-436 cells were below 20 nM and below 200 nM, respectively. Further, the “F (%)” value in series [2] worked out at 41.2%. The compound also came in with an AUC0-t in series [2] (plasma) of 6302 ng·h/mL.

Consider `C#CCn1cc(C(F)(F)F)nc1-c1ccc(Cn2ncc3cnc(-c4c(OC)ncnc4C4CC4)c(F)c32)cc1` [Compound 16], for which the Oral absorption result in series [1] is “Yes”. For the same compound, the figures for the IC50 against USP1/UAF1 and in the series on MDA-MB-436 cells (setting [3]) were below 20 nM and below 200 nM, respectively. Consider `[2H]C([2H])([2H])C([2H])(n1cc(C(F)(F)F)nc1C12CCC(Cn3ncc4cnc(-c5c(OC(F)F)ncnc5C5CC5)c(F)c43)(CC1)CC2)C([2H])([2H])[2H]` [Compound 15], for which, in the series with MDA-MB-436 cells (setting [3]), the 50% inhibitory concentration (IC50) is below 200 nM. Regarding `Fc1c(-c2c(OC(F)F)ncnc2C2CC2)ncc2cnn(CC34CCC(c5nc(C(F)(F)F)cn5CC5CC5)(CC3)CC4)c12` [Compound 10], the IC50 in the series with MDA-MB-436 cells (setting [3]) was below 200 nM. Take `CC(C)n1cc(C(F)(F)F)nc1C12CCC(Cn3ncc4cnc(-c5c(OC(F)F)ncnc5C5CC5)c(F)c43)(CC1)CC2` [Compound 4]: the values for the concentration for half-maximal inhibition (IC50) at USP1/UAF1 and with MDA-MB-436 cells were below 20 nM and below 200 nM, respectively. As to `Fc1c(-c2c(OC(F)F)ncnc2C2CC2)ncc2cnn(Cc3ccc(-c4nc(C(F)(F)F)c5n4CC(F)(F)C5)cc3)c12` [Compound 14], the Oral absorption result in series [1] is given as “Yes”. In the case of `COc1ncnc(C2CC2)c1-c1ncc2cnn(Cc3ccc(-c4nc(C(F)(F)F)c5n4[C@@H](C)CC5)cc3)c2c1F` [Compound 22], the Oral absorption entry in series [1] is “Yes”. In the series with MDA-MB-436 cells (setting [3]), the IC50 is below 200 nM. As for `COc1ncnc(C2CC2)c1-c1ncc2cnn(Cc3ccc(-c4nc(C(F)(F)F)cn4C(C)C)cc3)c2n1` [Control compound A, reference compound], the bioavailability in series [2] (male, dog, plasma, po) was determined as 15.8%. The AUC0-t in series [2] (male, dog, po, plasma, read-out: AUC0-t) came to 994 ng·h/mL. For `CC(C)n1cc(C(F)(F)F)nc1-c1ccc(Cn2ncc3cnc(-c4c(OC(F)F)ncnc4C4CC4)c(F)c32)cc1` [Compound 20], the concentration for half-maximal inhibition (IC50) in the series with MDA-MB-436 cells (setting [3]) is below 200 nM.

In the case of `C#CCn1cc(C(F)(F)F)nc1C12CCC(Cn3ncc4cnc(-c5c(OC)ncnc5C5CC5)c(F)c43)(CC1)CC2` [Compound 8], the Oral absorption entry in series [1] is listed as “Yes”.

Usually IC50 stands for the concentration that gives 50% inhibition. As a reminder, the bioavailability is the share of a dose that reaches the circulation, judged against a reference dose that is usually intravenous. Read a high bioavailability as much systemic uptake.

For the origin of these results see patent US20250382289A1, “PYRAZOLOPYRIDINE DERIVATIVE AND APPLICATION THEREOF IN MEDICINE” (XIZANG HAISCO PHARMACEUTICAL CO., LTD., priority 2022, published 2025).
